The results in this text go back to US9040749B2, “Borazine derivatives” (UNIVERSITE DE NAMUR, priority 2011, dated 2015).

Series [1] can be described thus: Stability at air and room temperature, NMR spectra at t=0 and t=10 months. Format: physicochemical. The settings on record: NMR spectra at t=0 and t=10 months (FIG. 5).
Series [2] can be described thus: Solubility in organic solvents. Format: physicochemical.

Take `Cc1cc(C)c(B2N(c3ccccc3)B(c3c(C)cc(C)cc3C)N(c3ccccc3)B(c3c(C)cc(C)cc3C)N2c2ccccc2)c(C)c1` [borazine derivative 1, N,N′,N″-triphenyl-B,B,B″-tri(2,4,6-trimethyl)phenyl borazine]: the “Stability at air and room temperature” value in series [1] is on record as “excellent stability”. The Solubility in series [2] (solvent: Chloroform) was determined as 54 Milligram/milliliter; in series [2] (solvent: Dichloromethane), 102 Milligram/milliliter; in series [2] (solvent: Ethyl acetate), 62 Milligram/milliliter; in series [2] (solvent: Toluene), 45 Milligram/milliliter.
In the case of `CCCCCCCCCCCCc1ccc(N2B(c3c(C)cc(C)cc3C)N(c3ccc(CCCCCCCCCCCC)cc3)B(c3c(C)cc(C)cc3C)N(c3ccc(CCCCCCCCCCCC)cc3)B2c2c(C)cc(C)cc2C)cc1` [borazine derivative 2, N,N′,N″-tri(4-dodecyl)phenyl-B,B,B″-tri(2,4,6-trimethyl)phenyl borazine], the “Solubility (miscibility)” value in series [2] (compound is an oil, toluene, ethyl acetate, dichloromethane, benzene and chloroform) is given as “miscible”.
